The source of these data is patent publication US20170362283A1, “NISIN-BASED COMPOUNDS AND USE THEREOF IN THE TREATMENT OF BACTERIAL INFECTIONS” (UNIVERSITEIT UTRECHT HOLDING B.V., priority 2015, published 2017).

The test system of experiment [1] is M. luteus. Type of experiment: cell-based. The following applies: duplicate experiments. A digest of the protocol:
(§1)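 Broth dilution MIC following CLSI M07-A9; overnight TSB cultures diluted to 0.5×10^6 CFU in TSB and incubated with compound at 37° C for 16 hours. MIC read by visual inspection of growth.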

The test system of experiment [2] is MRSA USA300. Type of experiment: cell-based, Staphylococcus aureus. Particulars: duplicate experiments. A digest of the protocol: as §1
Experiment [3] has as its system MRSA WKZ2. In kind it is cell-based, Staphylococcus aureus. Particulars: duplicate experiments. A digest of the protocol:
as §1

Experiment [4] relates to E. faecium E745. Description: BioScreen growth assay for E. faecium E745. In kind it is cell-based. Particulars: 5 μM. How it is done:
(§2) A BioScreen C instrument (Oy Growth Curves AB, Helsinki, Finland) was used to monitor effects of the compounds (6), (10), and (12) and the effect of compound (24) with R1-group (e), or Comparative compound B (nisin) on E. faecium growth (each compound administered at a fixed concentration 5 μM). E. faecium strains were inoculated at an initial OD660 of 0.05 into 300 μl TSB containing 1% DMSO and 1% glucose or into the same medium containing the antibiotic compounds at a final concentration of 5 μM. […]
(§3) The E. faecium strains used in these experiments are E. faecium E745 (vancomycin-ampicillin resistant hospital outbreak strain), E. faecium E980 (vancomycin-ampicillin susceptible human commensal isolate), E. Faecium E1133 (vancomycin-ampicillin resistant hospital outbreak strain), and E. faecium E1162 (vancomycin-susceptible ampicillin-resistant clinical isolate). The BioScreen growth assays for each strain was determined for the compounds (6), (10), (12) and also for compound (24) with R1-group (e) as well as nisin (Comparative compound B) and compared to non-treated strains, the results being shown in the Tables 9 to 12 below.

Experiment [5] relates to E. faecium E1133. The experiment can be described thus: BioScreen growth assay for E. faecium E1133. Particulars: 5 μM. In kind it is cell-based. How it is done:
as §2, §3

Consider nisin [Compound B], for which, in experiment [1], the “MIC values M. luteus” value fell in the range of 0.02 to 0.03 µg/mL. In experiment [2], the “MIC values MRSA USA300” value worked out at 10 µg/mL. Moreover, the “MIC values MRSA WKZ2” value in experiment [3] stood at 10 µg/mL. Moreover, the OD600 in experiment [4] (time 0 h) is 0.01733; in experiment [4] (time 4 h) it was 0.01033; in experiment [4] (time 8 h), 0.01033; in experiment [4] (time 12 h), 0.01067; in experiment [4] (time 16 h), 0.008667; in experiment [5] (time 0 h), 0.016. Besides, the OD600 in experiment [5] (time 4 h) came out at 0.009667; in experiment [5] (time 8 h), 0.009333; in experiment [5] (time 12 h) it was 0.009333; in experiment [5] (time 16 h) it was 0.008667.
